Laboratory results reported in US12280090B2, “Antimicrobial peptides” (priority 2018, dated 2025).
Values after ≈ are worked out from the molar mass of the structure shown. Ends that are not written are not given here. Peptide text beside a SMILES is read from it.

Experiments:
Format in all cases: cell-based
[1] = system: Mycobacterium smegmatis (MC^2155); conditions: Mycobacterium (MC^2155)
Description: (§1) Microtiter broth dilution assays. HP2, HP3, and HP5 peptides are comprised of novel sequences that have not yet been described in the AMP literature. A common method for establishing antimicrobial activity of peptides is to perform microtiter broth assays. Microtiter broth dilution methods were implemented for determination of the minimum inhibitory concentration (MIC) and minimum bactericidal concentration (MBC). HP3 and HP5 were tested in addition to Ranatuerin-1/HP4 peptide as a positive control. HP2 could not be tested because multiple peptide synthesis attempts failed. The human cathelicidin, LL-37^30 was used as an additional positive control, and an unrelated similarly sized cationic peptide from the T. pallidum protein Tp0751 was used as a negative control. The potential AMPs were tested against bacteria representative of all three types of known cell envelope (Gram-positive, negative, and the complex and unique mycobacterial cell wall/envelope), given that a major mechanism used by AMPs is cell wall/membrane targeting.
(§2) Microtiter broth dilution assays. To test for antimicrobial activity, HP3, HP4/Ranatuerin-1, and HP5, peptides were synthesized by GenScript (Piscataway, New Jersey, USA). HP2 was not tested because the service provider was unable to synthesize this peptide despite multiple attempts. An unrelated, similarly-sized peptide from the Treponema pallidum protein Tp0751^55 was used as a negative control and the human cathelicidin, LL-37^30, was included as a positive control. Peptides were dissolved in filter-sterilized ultrapure water and tested for sterility by plating on non-selective agar plates followed by a 48 h incubation at 37° C. Two-fold serial dilutions of each peptide were prepared to obtain a series corresponding to ten times the required testing concentrations (2560, 1280, 640, 320, 160, 80, 40, 20, 10, and 5 μg/mL)^29.
(§3) Microtiter broth dilution methods were implemented for determination of the minimum inhibitory concentration (MIC) and minimum bactericidal concentration (MBC) of the four putative AMPs and the negative control peptide using procedures adapted from the R.E.W. Hancock Laboratory for cationic AMPs^29 and the CLSI methods for dilution antimicrobial susceptibility tests^56.
(§4) To assess antimicrobial activity across a diverse range of bacterial species, colonies were cultured overnight on Mueller Hinton agar plates (MHA; +5% sheep blood for S. pyogenes)^56 from frozen glycerol stock. Bacteria tested include Gram-negative rods (Escherichia coli: ATCC 9723H; Pseudomonas aeruginosa: ATCC 10148), Gram-positive cocci (Staphylococcus aureus: ATCC 6538P; Streptococcus pyogenes: unknown strain, hospital isolate), and Mycobacterium smegmatis (MC^2155; classified as neither Gram-positive nor Gram-negative). Bacterial suspensions were prepared by placing 3-5 morphologically similar colonies from the grown plate into sterile glass culture tubes containing 2 mL of Mueller Hinton Broth (MHB; +5% lysed horse blood for S. pyogenes) 56. Microbial inoculums from bacterial suspensions were prepared through a spectrophotometric adjustment of turbidity to 0.08-0.1 at 600 nm to achieve a turbidity equivalent to that of a 0.5 McFarland standard (1-2×10^8 CFU/mL)^29. The standardized bacterial inoculums were then diluted in MHB to obtain final cell densities of approximately […].
(§5) Ninety-six-well microtiter plates (Fisher Cat. No. CS003790; Nepean, Ontario, Canada) were prepared with 100 μL of E. coli, P. aeruginosa, S. aureus, S. pyogenes, or M. smegmatis bacterial suspension (5×10^5 CFU/mL) dispensed into each well of columns 1 through 11. Eleven microliters of the 10×AMP dilution series for all four peptides were added to each well from column 1 (2560 μg/mL) to column 10 (5 μg/mL) in all plates. Column 11 functioned as a positive control for bacterial growth in the absence of AMPs. Column 12 in each plate contained 100 μL of MHB as a sterility control (+5% lysed horse blood for S. pyogenes)^56. […]

[2] = system: Staphylococcus aureus: ATCC 6538P; conditions: ATCC 6538
Description: as §1, §2, §3, §4, §5

[3] = system: Escherichia coli: ATCC 9723H; conditions: ATCC 9723
Description: as §1, §2, §3, §4, §5

[4] = system: Pseudomonas aeruginosa: ATCC 10148; conditions: ATCC 10148
Description: as §1, §2, §3, §4, §5

[5] = system: Streptococcus pyogenes: unknown strain, hospital isolate; conditions: unknown strain, hospital isolate
Description: as §1, §2, §3, §4, §5

[6] = system: Escherichia coli—Carbapenemase-producing organism; New-Dehli Metallobetalactamase
Description: (§6) Independent experiments were conducted with four strains of E. coli, including ATCC E. coli (Escherichia coli—ATCC 25922 “wild type”); ESBL E. coli (Escherichia coli—Extended spectrum beta-lactamase); CPO E. coli (KPC) (Escherichia coli—Carbapenemase-producing organism; Klebsiella pneumoniae carbapenemase); and CPO E. coli (NDM) (Escherichia coli—Carbapenemase-producing organism; New-Dehli Metallobetalactamase).
(§7) The ATCC (American Type Culture Collection) strains received from Cedarlane. Multi drug resistant (MDR) strains, as clinical isolates, were received from the laboratory of Dr. Linda Hoang.
(§8) Putative antimicrobial peptides were synthesized by GeneScript. A-list antimicrobial peptides re-synthesized by GeneScript. P2_CCH, P5_CCH, and P5_CCH_A19K were each synthesized under two conditions: standard synthesis using TFA, and the other with TFA-removal using acetate as a counter-ion. A MIC method, adapted for use with cationic antimicrobial peptides, was used to evaluate MIC antimicrobial activity (Hancock 1999).
(§9) The following data are presented to show the activity (MIC/MBC in μg/mL) of certain antimicrobial peptides described herein relative to a modified/synthetic version having a specified substitution. While data presented in tables above may be presented again, or may be represented in data provided in the tables below, such duplication is believed to assist the reader in readily noting comparisons. Different Run Numbers noted in the following tables denotes experiments conducted on different days, with each run reflecting multiple n values.

[7] = system: Escherichia coli—Carbapenemase-producing organism; Klebsiella pneumoniae carbapenemase
Description: as §6, §7, §8, §9

[8] = system: Escherichia coli—ATCC 25922 “wild type”
Description: as §6, §7, §8, §9

Molecule	MBC [1]	MIC [1]	MBC [2]	MIC [2]	MBC [3]	MIC [3]	MBC [4]	MIC [4]	MBC [5]	MIC [5]	MIC [6]	MBC [7]	MIC [7]	MIC [8]
CC[C@H](C)[C@H](NC(=O)CNC(=O)[C@@H](NC(=O)[C@@H](NC(=O)[C@H](CCCCN)NC(=O)CNC(=O)[C@@H](NC(=O)[C@H](CC(=O)O)NC(=O)[C@H](CCCCN)NC(=O)[C@@H](NC(=O)[C@@H](NC(=O)[C@H](CC(=O)O)NC(=O)[C@H](CC(C)C)NC(=O)[C@H](CC(C)C)NC(=O)CN)[C@@H](C)CC)[C@@H](C)CC)[C@@H](C)O)[C@@H](C)O)[C@@H](C)O)C(=O)N[C@@H](CC(C)C)C(=O)N[C@@H](CCSC)C(=O)N[C@@H](CC(=O)O)C(=O)N[C@H](C(=O)N[C@@H](CC(C)C)C(=O)N[C@@H](CCCCN)C(=O)N[C@@H](CS)C(=O)N[C@@H](CCC(N)=O)C(=O)N[C@@H](CCSC)C(=O)N[C@H](C(=O)NCC(=O)N[C@@H](CCCNC(=N)N)C(=O)N[C@@H](CS)C(=O)N1CCC[C@H]1C(=O)N1CCC[C@H]1C(=O)N[C@@H](CO)C(=O)N[C@@H](CO)C(=O)O)[C@@H](C)O)[C@@H](C)O [Peptide P3_CCH] (H-GLLDIIKDTGKTTGILMDTLKCQMTGRCPPSS-OH; N-terminus and C-terminus assumed)	>256 µg/mL	>256 µg/mL	>256 µg/mL	>256 µg/mL	>256 µg/mL	>256 µg/mL	>256 µg/mL	>256 µg/mL	>256 µg/mL	>256 µg/mL				
IAGQVAAAKQKHI [Peptide P12_CCH, IAGQVAAAKQKHI]	>256 µg/mL	>256 µg/mL	>256 µg/mL	>256 µg/mL	>256 µg/mL	>256 µg/mL	>256 µg/mL	>256 µg/mL	>256 µg/mL	>256 µg/mL				
ATAWRIPPPGMQPIIPIRIRPLCGKQ [Peptide P7_CCH]	>256 µg/mL	32 µg/mL	>256 µg/mL	>256 µg/mL	>256 µg/mL	>256 µg/mL	>256 µg/mL	>256 µg/mL	>256 µg/mL	>256 µg/mL	256 µg/mL			
CC(C)C[C@H](NC(=O)[C@H](CS)NC(=O)[C@@H]1CCCN1C(=O)[C@H](CCCCN)NC(=O)[C@H](CCCNC(=N)N)NC(=O)[C@@H]1CCCN1C(=O)[C@H](Cc1ccccc1)NC(=O)[C@H](CO)NC(=O)[C@H](CCCCN)NC(=O)[C@@H](NC(=O)[C@H](Cc1c[nH]c2ccccc12)NC(=O)[C@H](CS)NC(=O)CNC(=O)[C@H](CCCNC(=N)N)NC(=O)[C@H](CC(C)C)NC(=O)[C@@H](N)CO)[C@@H](C)O)C(=O)N[C@@H](CCCNC(=N)N)C(=O)N[C@@H](CC(N)=O)C(=O)N[C@@H](CCCNC(=N)N)C(=O)O [HP3_S3R] (H-SLRGCWTKSFPRKPCLRNR-OH; N-terminus and C-terminus assumed)											128 µg/mL (≈ 55.5 µM)	256 µg/mL (≈ 111 µM)	256 µg/mL (≈ 111 µM)	128 µg/mL (≈ 55.5 µM)
